Reference: patent US20090285916A1, “METHODS OF DIAGNOSIS AND TREATMENT OF EQUINE LAMINITIS AND CUSHING'S SYNDROME” (Pegasus Equine Diagnostics Limited, priority 2006, published 2009)

Columns and labels:
equine digital arteries = conditions: reference 38; cited from earlier work
[1] = system: PPID (pituitary pars intermedia dysfunction); test: Anecdotal evidence on melatonin and pergolide dosing in PPID horses and ponies; type: in vivo
From the text: From a chronological perspective obviously both groups of horses were aged (>16 years), but from the viewpoint of the Neuroendocrine Theory of Aging (21) the PPID group might be considered to be of greater “biological age” than the control group. […] There was also a pronounced dopamine rhythm phase shift and amplitude decrease for the PPID group in June and September, in addition to evidence of serotonin acrophase amplitudes being increased in September. These observations are consistent with the reduction in dopamine and concomitant increase in serotonin implied in the treatment of PPID horses with dopamine agonists and serotonin antagonists. […] This may also apply to the subsequent increases in follicle density and length plus coarsening of the hair structure that have been observed. It is worth noting that the significant differences between the groups in our results appear to pre-date the traditionally acknowledged seasons (spring, autumn) of increased laminitis susceptibility by approximately three months (as well as being present during such seasons); this is perhaps not when most practitioners would expect them. […] The situation may, of course, be exacerbated by other trigger factors for laminitis becoming part of the external conditions to which the horse is exposed, e.g. access to a flush of spring grass. Additionally, it might be expected that dopamine and serotonin would be the dominant factors implicated in investigating PPID, as defined by past treatment regimes. However, when the results of the present study were examined as a whole, taking into account assay sensitivity, the neurohormone rhythms that were discovered and neurohormone rhythms that exist in the literature for healthy horses (14, 40, 41), the signals felt to be most reliable were dopamine plasma concentrations and serotonin:melatonin and dopamine:melatonin plasma concentration ratios, with serotonin:dopamine only represented for two times in June (as shown in FIG. 6). […]

Structure (SMILES): NCCc1c[nH]c2ccc(O)cc12 [5-HT, 5-hydroxytryptamine]
- sensitivity of digital arteries to vasoconstrictive actions compared with other peripheral blood vessels (equine digital arteries): 30-40 fold

Structure (SMILES): COc1ccc2[nH]cc(CCNC(C)=O)c2c1 [melatonin]
- shedding of the winter coat ([1]; low dosage 1.5 mg, in the evening each day, all year round): facilitates shedding of the winter coat at the expected time

Structure (SMILES): CCCN1C[C@H](CSC)C[C@@H]2c3cccc4[nH]cc(c34)C[C@H]21 [pergolide]
- effect of changing time of day of administration, changing the dosage (by as little as 0.05 mg per day) and under or over dosing [1]: increase the probability that laminitis will occur
- maximum dosage for ponies ([1]; ponies): 0.75 mg
